Measurements published in patent publication US20220389061A1, “IMMUNOMODULATORS” (priority 2019, published 2022).
Starred links: 1 amine or outer side, 2 acyl side, 3 side chain; linkers in the order of their positions; H or OH if unused. Positions of bridges follow the written chain, without caps; N, C: chain ends. Non-standard residues stand in square brackets, D forms with d. Residues, ends and D or L forms follow the SMILES beside them. Groups on a side chain read outwards from the residue. *: point of attachment. Trp(1-CH2COOH) = N[C@@H](Cc1cn(CC(=O)O)c2ccccc12)C(=O)O; NH(2-Cl-4-NO2-phenyl) = O=[N+]([O-])c1ccc(N*)c(Cl)c1; NH(benzothiophen-5-yl) = c1cc2cc(N*)ccc2s1; X79 = CCn1c2ccccc2c2cc(NC(=S)*)ccc21; X67 = S=C(Nc1c(Cl)c(Cl)cc(Cl)c1Cl)*; X1 = S=C(Nc1ccc2c(c1)Cc1ccccc1-2)*; Hyp = O=C(O)[C@@H]1C[C@@H](O)CN1; X10 = S=C(Nc1ccc(N2CCOCC2)cc1)*; X30 = FC(F)(F)c1ccc(N*)c(Cl)c1; NMeNle = CCCC[C@H](NC)C(=O)O; X12 = S=C(Nc1ccc2ccccc2c1)*; 3Abz = Nc1cccc(C(=O)O)c1; NMeA = CN[C@@H](C)C(=O)O; Dab = NCC[C@H](N)C(=O)O; Dap = NC[C@H](N)C(=O)O; X15 = Cc1ccc(Cl)cc1N*; CO = O=C([*:1])[*:2]

The compounds below were run against T1, PD-1/PD-L1 (Homo sapiens, UniProt Q9NZQ7) (assay: PD-1/PD-L1 Homogenous Time-Resolved Fluorescence (HTRF) binding assay). Conditions: not given.
T1 construct: TVMV protease site linker (C); made in house; host or cells: HEK293T cells
Description: The ability of the compounds of formula (I) to bind to PD-L1 was investigated using a PD-1/PD-L1 Homogenous Time-Resolved Fluorescence (HTRF) binding assay.
The interaction of PD-1 and PD-L1 can be assessed using soluble, purified preparations of the extracellular domains of the two proteins. The PD-1 and PD-L1 protein extracellular domains were expressed as fusion proteins with detection tags, for PD-1, the tag was the Fc portion of Immunoglobulin (PD-1-Ig) and for PD-L1 it was the 6 histidine motif (PD-L1-His). All binding studies were performed in an HTRF assay buffer consisting of dPBS supplemented with 0.1% […] bovine serum albumin and 0.05% (v/v) Tween-20. For the h/PD-L1-His binding assay, inhibitors were pre-incubated with PD-L1-His (10 nM final) for 15 m in 4 μl of assay buffer, followed by addition of PD-1-Ig (20 nM final) in 1 μl of assay buffer and further incubation for 15 m. HTRF detection was achieved using europium crypate-labeled anti-Ig (1 nM final) and allophycocyanin (APC) labeled anti-His (20 nM final). Antibodies were diluted in HTRF detection buffer and 5 μl was dispensed on top of the binding reaction. […] Additional binding assays were established between the human proteins PD-1-Ig/PD-L2-His (20 & 5 nM, respectively) and CD80-His/PD-L1-Ig (100 & 10 nM, respectively). […]

T1 sequence (Q9NZQ7 18-239): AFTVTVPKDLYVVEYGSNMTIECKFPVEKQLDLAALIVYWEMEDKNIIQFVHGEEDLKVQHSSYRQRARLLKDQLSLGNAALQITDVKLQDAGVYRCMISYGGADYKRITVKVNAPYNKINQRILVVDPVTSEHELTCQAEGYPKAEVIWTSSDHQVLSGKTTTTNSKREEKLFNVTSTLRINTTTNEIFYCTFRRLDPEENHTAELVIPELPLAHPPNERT

SMILES | IC50 [nM]
CCCC[C@H]1C(=O)N(C)[C@@H](CCCC)C(=O)N[C@@H](CC(C)C)C(=O)N[C@H](C(=O)NCC(N)=O)CSCC(=O)N[C@@H](Cc2ccc(O)cc2)C(=O)N(C)[C@@H](C)C(=O)N[C@@H](CC(N)=O)C(=O)N2CCC[C@H]2C(=O)N[C@@H](CNC(=O)Nc2ccc([N+](=O)[O-])cc2Cl)C(=O)N[C@@H](CC(C)C)C(=O)N2C[C@H](O)C[C@H]2C(=O)N[C@@H](Cc2c[nH]c3ccccc23)C(=O)N[C@@H](CCNC(=O)Nc2ccc([N+](=O)[O-])cc2Cl)C(=O)N[C@@H](Cc2cn(CC(=O)O)c3ccccc23)C(=O)N1C [Example 1096] ({CH2CO}-Y[NMeA]NP[Dap]([CO-NH(2-Cl-4-NO2-phenyl)])L[Hyp]W[Dab]([CO-NH(2-Cl-4-NO2-phenyl)])[Trp(1-CH2COOH)][NMeNle][NMeNle]LCG-NH2; thioether N-14) | 6.9

Same assay, conditions: PD-L1-His 10 nM pre-incubated with inhibitor, PD-1-Ig 20 nM; read-out: HTRF IC50

SMILES | IC50 [nM]
CCCC[C@H]1C(=O)N(C)[C@@H](CCCC)C(=O)N[C@@H](CC(C)C)C(=O)N[C@H](C(=O)NCC(N)=O)CSCC(=O)N[C@@H](Cc2ccc(O)cc2)C(=O)N(C)[C@@H](C)C(=O)N[C@@H](CC(N)=O)C(=O)N2CCC[C@H]2C(=O)N[C@@H](CNC(=S)Nc2ccc(N3CCOCC3)cc2)C(=O)N[C@@H](CC(C)C)C(=O)N2C[C@H](O)C[C@H]2C(=O)N[C@@H](Cc2c[nH]c3ccccc23)C(=O)N[C@@H](CCNC(=S)Nc2ccc(N3CCOCC3)cc2)C(=O)N[C@@H](Cc2cn(CC(=O)O)c3ccccc23)C(=O)N1C [Example 1127] ({CH2CO}-Y[NMeA]NP[Dap](X10)L[Hyp]W[Dab](X10)[Trp(1-CH2COOH)][NMeNle][NMeNle]LCG-NH2; thioether N-14) | 3
CCCC[C@H]1C(=O)N(C)[C@@H](CCCC)C(=O)N[C@@H](CC(C)C)C(=O)N[C@H](C(=O)NCC(N)=O)CSCC(=O)N[C@@H](Cc2ccc(O)cc2)C(=O)N(C)[C@@H](C)C(=O)N[C@@H](CC(N)=O)C(=O)N2CCC[C@H]2C(=O)N[C@@H](CNC(=O)Nc2ccc(C(F)(F)F)cc2Cl)C(=O)N[C@@H](CC(C)C)C(=O)N2C[C@H](O)C[C@H]2C(=O)N[C@@H](Cc2c[nH]c3ccccc23)C(=O)N[C@@H](CCN)C(=O)N[C@@H](Cc2cn(CC(=O)O)c3ccccc23)C(=O)N1C [Example 1105] ({CH2CO}-Y[NMeA]NP[Dap]([CO-X30])L[Hyp]W[Dab][Trp(1-CH2COOH)][NMeNle][NMeNle]LCG-NH2; thioether N-14) | 26
CCCC[C@H]1C(=O)N(C)[C@@H](CCCC)C(=O)N[C@@H](CC(C)C)C(=O)N[C@H](C(=O)NCC(N)=O)CSCC(=O)N[C@@H](Cc2ccc(O)cc2)C(=O)N(C)[C@@H](C)C(=O)N[C@@H](CC(N)=O)C(=O)N2CCC[C@H]2C(=O)N[C@@H](CNC(=S)Nc2ccc3c(c2)c2ccccc2n3CC)C(=O)N[C@@H](CC(C)C)C(=O)N2C[C@H](O)C[C@H]2C(=O)N[C@@H](Cc2c[nH]c3ccccc23)C(=O)N[C@@H](CCNC(=S)Nc2ccc3c(c2)c2ccccc2n3CC)C(=O)N[C@@H](Cc2cn(CC(=O)O)c3ccccc23)C(=O)N1C [Example 2013] ({CH2CO}-Y[NMeA]NP[Dap](X79)L[Hyp]W[Dab](X79)[Trp(1-CH2COOH)][NMeNle][NMeNle]LCG-NH2; thioether N-14) | 8.1
CCCC[C@H]1C(=O)N(C)[C@@H](CCCC)C(=O)N[C@@H](CC(C)C)C(=O)N[C@H](C(=O)NCC(N)=O)CSCC(=O)N[C@@H](Cc2ccc(O)cc2)C(=O)N(C)[C@@H](C)C(=O)N[C@@H](CC(N)=O)C(=O)N2CCC[C@H]2C(=O)N[C@@H](CNC(=S)Nc2ccc3ccccc3c2)C(=O)N[C@@H](CC(C)C)C(=O)N2C[C@H](O)C[C@H]2C(=O)N[C@@H](Cc2c[nH]c3ccccc23)C(=O)N[C@@H](CCNC(=S)Nc2ccc3ccccc3c2)C(=O)N[C@@H](Cc2cn(CC(=O)O)c3ccccc23)C(=O)N1C [Example 3014] ({CH2CO}-Y[NMeA]NP[Dap](X12)L[Hyp]W[Dab](X12)[Trp(1-CH2COOH)][NMeNle][NMeNle]LCG-NH2; thioether N-14) | 4.9
CCCC[C@H]1C(=O)N(C)[C@@H](CCCC)C(=O)N[C@@H](CC(C)C)C(=O)N[C@H](C(=O)NCC(N)=O)CSCC(=O)N[C@@H](Cc2ccc(O)cc2)C(=O)N(C)[C@@H](C)C(=O)N[C@@H](CC(N)=O)C(=O)N2CCC[C@H]2C(=O)N[C@@H](CNC(=O)Nc2ccc3sccc3c2)C(=O)N[C@@H](CC(C)C)C(=O)N2C[C@H](O)C[C@H]2C(=O)N[C@@H](Cc2c[nH]c3ccccc23)C(=O)N[C@@H](CCN)C(=O)N[C@@H](Cc2cn(CC(=O)O)c3ccccc23)C(=O)N1C [Example 3026] ({CH2CO}-Y[NMeA]NP[Dap]([CO-NH(benzothiophen-5-yl)])L[Hyp]W[Dab][Trp(1-CH2COOH)][NMeNle][NMeNle]LCG-NH2; thioether N-14) | 3.3
CCCC[C@H]1C(=O)N(C)[C@@H](CCCC)C(=O)N[C@@H](CC(C)C)C(=O)N[C@H](C(=O)NCC(N)=O)CSCC(=O)N[C@@H](Cc2ccc(O)cc2)C(=O)N(C)[C@@H](C)C(=O)N[C@@H](CC(N)=O)C(=O)N2CCC[C@H]2C(=O)N[C@@H](CNC(=S)Nc2c(Cl)c(Cl)cc(Cl)c2Cl)C(=O)N[C@@H](CC(C)C)C(=O)N2C[C@H](O)C[C@H]2C(=O)N[C@@H](Cc2c[nH]c3ccccc23)C(=O)N[C@@H](CCN)C(=O)N[C@@H](Cc2cn(CC(=O)O)c3ccccc23)C(=O)N1C [Example 1110] ({CH2CO}-Y[NMeA]NP[Dap](X67)L[Hyp]W[Dab][Trp(1-CH2COOH)][NMeNle][NMeNle]LCG-NH2; thioether N-14) | 2
CCCC[C@H]1C(=O)N(C)[C@@H](CCCC)C(=O)N[C@@H](CC(C)C)C(=O)N[C@H](C(=O)NCC(N)=O)CSCC(=O)N[C@@H](Cc2ccc(O)cc2)C(=O)N(C)[C@@H](C)C(=O)N[C@@H](CC(N)=O)C(=O)N2CCC[C@H]2C(=O)N[C@@H](CNC(=S)Nc2ccc3c(c2)Cc2ccccc2-3)C(=O)N[C@@H](CC(C)C)C(=O)N2C[C@H](O)C[C@H]2C(=O)N[C@@H](Cc2c[nH]c3ccccc23)C(=O)N[C@@H](CCN)C(=O)N[C@@H](Cc2cn(CC(=O)O)c3ccccc23)C(=O)N1C [Example 2010] ({CH2CO}-Y[NMeA]NP[Dap](X1)L[Hyp]W[Dab][Trp(1-CH2COOH)][NMeNle][NMeNle]LCG-NH2; thioether N-14) | 3.7
CCCC[C@H]1C(=O)N(C)[C@@H](CCCC)C(=O)N[C@@H](CC(C)C)C(=O)N[C@H](C(=O)NCC(N)=O)CSCC(=O)N[C@@H](Cc2ccc(O)cc2)C(=O)N(C)[C@@H](C)C(=O)N[C@@H](CC(N)=O)C(=O)N2CCC[C@H]2C(=O)N[C@@H](CNC(=O)Nc2cc(Cl)ccc2C)C(=O)N[C@@H](CC(C)C)C(=O)N2C[C@H](O)C[C@H]2C(=O)N[C@@H](Cc2c[nH]c3ccccc23)C(=O)N[C@@H](CCNC(=O)Nc2cc(Cl)ccc2C)C(=O)N[C@@H](Cc2cn(CC(=O)O)c3ccccc23)C(=O)N1C [Example 1118] ({CH2CO}-Y[NMeA]NP[Dap]([CO-X15])L[Hyp]W[Dab]([CO-X15])[Trp(1-CH2COOH)][NMeNle][NMeNle]LCG-NH2; thioether N-14) | 4.3
CCCC[C@H]1C(=O)N(C)[C@@H](CCCC)C(=O)N[C@@H](CC(C)C)C(=O)N[C@H](C(=O)NCC(N)=O)CSCC(=O)N[C@@H](Cc2ccc(O)cc2)C(=O)N(C)[C@@H](C)C(=O)N[C@@H](CC(N)=O)C(=O)N2CCC[C@H]2C(=O)N[C@@H](CNC(=O)Nc2cccc(C(=O)OCC)c2)C(=O)N[C@@H](CC(C)C)C(=O)N2C[C@H](O)C[C@H]2C(=O)N[C@@H](Cc2c[nH]c3ccccc23)C(=O)N[C@@H](CCNC(=O)Nc2cccc(C(=O)OCC)c2)C(=O)N[C@@H](Cc2cn(CC(=O)O)c3ccccc23)C(=O)N1C [Example 1100] ({CH2CO}-Y[NMeA]NP[Dap]([CO-3Abz-OEt])L[Hyp]W[Dab]([CO-3Abz-OEt])[Trp(1-CH2COOH)][NMeNle][NMeNle]LCG-NH2; thioether N-14) | 18
